# In patent EP0302824A2 (priority 1987, dated 1989):
# Columns and labels:
# [1] = Solubilization of furathiocarb in aqueous surfactant solutions, UV spectroscopy; format: physicochemical; settings: for enhancement in the solubility (increase): 1000 ppm
# Procedure: This example compares the solubilization of the biocide furathiocarb in a variety of aqueous surfactant solutions (1000 ppm). Experimental Note: 5 µl of furathiocarb (∼ 0.0060-0.0070 g) is pipetted into 10 ml aqueous solutions and stirred overnight. Analysis is performed by UV spectroscopy.
# [2] = system: D. balteata; assay: Soil activity of seed applied furathiocarb on maize cultivars Centaurus and Arjuna; format: in vivo, Diabrotica balteata; design: key to Scores of damage caused by D. balteata: 0-6 crown-root damage scale: 0 = no damage, 6 = <3 roots connect stem to soil
# Text: Plastic pots, 1 litre volume, are filled with soil to within 3 cm of the top. Three soil types are used: • 1. A natural soil from Stein, Canton Aargau, Switzerland. This is heat sterilized and sieved to give an agglomerate size of less than 5 mm. Its composition is clay 20.7%, silt 13.7%, sand 65.6%, organic matter 3.2%, pH 5.6. Moisture is adjusted to 20% of dry weight. • 2. An artificial mixture of fine quartz sand and milled neutralized peat (2% of total by dry weight). The moisture is adjusted to 10% of dry weight. • 3. An artificial mixture similar to (2) except that the neutralized peat comprised 6% by dry weight. Moisture is adjusted to 20% for the mixture.
# One seed is sown 3 cm deep in the center of each of 10 pots per treatment. The pots are placed in a growth chamber with a relative humidity of 70% in a 12 hour daylength, light intensity 30,000 lux, using 26°C day and 22°C night temperatures. Soil moisture is maintained at the original level by daily irrigation with a commercially available nutrient solution.
# After two or three weeks of plant growth, 40 larvae of the banded cucumber beetle (Diabrotica balteata) are scattered on the surface of each pot. This insect species is commonly used as a laboratory model for the corn rootworm (Diabrotica spp.) which is a common soil insect pest of maize (Zea mays) in the USA. For this test, second instar larvae are selected. They are reared on maize seedlings at 23°C for 13 days from egglaying. The surface of the soil in the pots is disturbed and 40 larvae are scattered on the surface. The disturbance encourages burrowing of the larvae.
# The insects are allowed to feed on the plant roots for one week before the contents of each pot are separated into three components (roots, insects and soil) using a wet sieving technique. Living larvae are then counted and damage assessed on crown roots growing from the stem-base using the 0-6 scale shown below: • 0 = no damage • 1 = slight feeding damage, no roots eaten through • 2 = more than 3 places with feed damage, no roots eaten through • 3 = 1-2 roots eaten through • 4 = more than 2, but less than half the roots eaten • 5 = more than half the roots eaten, but at least 3 still connect stem and soil • 6 = less than 3 roots connect stem to soil
# This example includes the results of test series using 2 maize cultivars Centaurus and Arjuna. The basic test procedure is described in detail under example 20 therefore only differences are mentioned here.
# Seeds of the hybrid Centaurus are treated with 4 or 10 g/kg furathiocarb in either PVAc/PVAl or association polymer systems. The cultivar Arjuna is treated with 2.5 or 10 g/kg seed in the same polymer systems. The seeds are sown in two soil types, either a natural soil from Stein, Canton Aargau, Switzerland or in a 98% sand 2% peat mixture. Both these soil types are described previously.
# [3] = cultivar Arjuna, 98% Sand, 3 w, Association Polymer, dosage 2.5 g
# [4] = cultivar Arjuna, 98% Sand, 3 w, Association Polymer, dosage 10 g
# [5] = cultivar Arjuna, 98% Sand, 3 w, PVAc/PVAl, dosage 2.5 g
# [6] = cultivar Arjuna, 98% Sand, 3 w, PVAc/PVAl, dosage 10 g
# [7] = cultivar Arjuna, 98% Sand, 4 w, Association Polymer, dosage 2.5 g
# [8] = cultivar Arjuna, 98% Sand, 4 w, Association Polymer, dosage 10 g
# [9] = cultivar Arjuna, 98% Sand, 4 w, PVAc/PVAl, dosage 2.5 g
# [10] = cultivar Arjuna, 98% Sand, 4 w, PVAc/PVAl, dosage 10 g
# [11] = cultivar Arjuna, Stein Earth, 3 w, Association Polymer, dosage 2.5 g
# [12] = cultivar Arjuna, Stein Earth, 3 w, Association Polymer, dosage 10 g
# [13] = cultivar Arjuna, Stein Earth, 3 w, PVAc/PVAl, dosage 2.5 g
# [14] = cultivar Arjuna, Stein Earth, 3 w, PVAc/PVAl, dosage 10 g
# [15] = cultivar Arjuna, Stein Earth, 4 w, Association Polymer, dosage 2.5 g
# [16] = cultivar Arjuna, Stein Earth, 4 w, Association Polymer, dosage 10 g
# [17] = cultivar Arjuna, Stein Earth, 4 w, PVAc/PVAl, dosage 2.5 g
# [18] = cultivar Arjuna, Stein Earth, 4 w, PVAc/PVAl, dosage 10 g
# [19] = hybrid Centaurus, 98% Sand, 3 w, Association Polymer, dosage 4 g
# [20] = hybrid Centaurus, 98% Sand, 3 w, Association Polymer, dosage 10 g
# [21] = hybrid Centaurus, 98% Sand, 3 w, PVAc/PVAl, dosage 4 g
# [22] = hybrid Centaurus, 98% Sand, 3 w, PVAc/PVAl, dosage 10 g
# [23] = hybrid Centaurus, 98% Sand, 4 w, Association Polymer, dosage 4 g
# [24] = hybrid Centaurus, 98% Sand, 4 w, Association Polymer, dosage 10 g
# [25] = hybrid Centaurus, 98% Sand, 4 w, PVAc/PVAl, dosage 4 g
# [26] = hybrid Centaurus, 98% Sand, 4 w, PVAc/PVAl, dosage 10 g
# [27] = hybrid Centaurus, Stein Earth, 3 w, Association Polymer, dosage 4 g
# [28] = hybrid Centaurus, Stein Earth, 3 w, Association Polymer, dosage 10 g
# [29] = hybrid Centaurus, Stein Earth, 3 w, PVAc/PVAl, dosage 4 g
# [30] = hybrid Centaurus, Stein Earth, 3 w, PVAc/PVAl, dosage 10 g
# [31] = hybrid Centaurus, Stein Earth, 4 w, Association Polymer, dosage 4 g
# [32] = hybrid Centaurus, Stein Earth, 4 w, Association Polymer, dosage 10 g
# [33] = hybrid Centaurus, Stein Earth, 4 w, PVAc/PVAl, dosage 4 g
# [34] = hybrid Centaurus, Stein Earth, 4 w, PVAc/PVAl, dosage 10 g
structure (smiles),measurement,setting,value
CCCCOC(=O)N(C)SN(C)C(=O)Oc1cccc2c1OC(C)(C)C2 [furathiocarb],"Solubility of Furathiocarb, ppm",[1]; 1000 ppm Alipal CO-433,25 ppm
same,"Solubility of Furathiocarb, ppm",[1]; 1000 ppm Alipal EP110,16 ppm
same,"Solubility of Furathiocarb, ppm",[1]; 1000 ppm Ethomeen T/15,89 ppm
same,"Solubility of Furathiocarb, ppm",[1]; 1000 ppm Pluronic F68,15 ppm
same,"Solubility of Furathiocarb, ppm",[1]; 1000 ppm Triton N101,220 ppm
same,enhancement in the solubility (increase),[1]; Ethomeen T/15 solution,5 fold
same,"Solubility of Furathiocarb, ppm",[1]; H₂O,15 ppm
same,enhancement in the solubility (increase),[1]; Triton N101 solution,14 fold
same,Percent D. balteata survival,[2]; [3],5%
same,Scores of damage caused by D. balteata,[2]; [3],1.4
same,Percent D. balteata survival,[2]; [4],8%
same,Scores of damage caused by D. balteata,[2]; [4],1.2
same,Percent D. balteata survival,[2]; [5],20%
same,Scores of damage caused by D. balteata,[2]; [5],3.0
same,Percent D. balteata survival,[2]; [6],20%
same,Scores of damage caused by D. balteata,[2]; [6],2.8
same,Percent D. balteata survival,[2]; [7],17%
same,Scores of damage caused by D. balteata,[2]; [7],2.8
same,Percent D. balteata survival,[2]; [8],0%
same,Scores of damage caused by D. balteata,[2]; [8],0.6
same,Percent D. balteata survival,[2]; [9],39%
same,Scores of damage caused by D. balteata,[2]; [9],3.4
same,Percent D. balteata survival,[2]; [10],21%
same,Scores of damage caused by D. balteata,[2]; [10],3.2
same,Percent D. balteata survival,[2]; [11],1%
same,Scores of damage caused by D. balteata,[2]; [11],3.6
same,Percent D. balteata survival,[2]; [12],1%
same,Scores of damage caused by D. balteata,[2]; [12],1.8
same,Percent D. balteata survival,[2]; [13],5%
same,Scores of damage caused by D. balteata,[2]; [13],3.2
same,Percent D. balteata survival,[2]; [14],3%
same,Scores of damage caused by D. balteata,[2]; [14],3.0
same,Percent D. balteata survival,[2]; [15],17%
same,Scores of damage caused by D. balteata,[2]; [15],3.8
same,Percent D. balteata survival,[2]; [16],0%
same,Scores of damage caused by D. balteata,[2]; [16],2.3
same,Percent D. balteata survival,[2]; [17],11%
same,Scores of damage caused by D. balteata,[2]; [17],3.0
same,Percent D. balteata survival,[2]; [18],14%
same,Scores of damage caused by D. balteata,[2]; [18],3.4
same,Percent D. balteata survival,[2]; [19],2%
same,Scores of damage caused by D. balteata,[2]; [19],1.4
same,Percent D. balteata survival,[2]; [20],4%
same,Scores of damage caused by D. balteata,[2]; [20],0
same,Percent D. balteata survival,[2]; [21],17%
same,Scores of damage caused by D. balteata,[2]; [21],3.0
same,Percent D. balteata survival,[2]; [22],8%
same,Scores of damage caused by D. balteata,[2]; [22],1.8
same,Percent D. balteata survival,[2]; [23],8%
same,Scores of damage caused by D. balteata,[2]; [23],1.6
same,Percent D. balteata survival,[2]; [24],8%
same,Scores of damage caused by D. balteata,[2]; [24],1.2
same,Percent D. balteata survival,[2]; [25],36%
same,Scores of damage caused by D. balteata,[2]; [25],3.4
same,Percent D. balteata survival,[2]; [26],30%
same,Scores of damage caused by D. balteata,[2]; [26],3.6
same,Percent D. balteata survival,[2]; [27],0%
same,Scores of damage caused by D. balteata,[2]; [27],0.8
same,Percent D. balteata survival,[2]; [28],1%
same,Scores of damage caused by D. balteata,[2]; [28],1.0
same,Percent D. balteata survival,[2]; [29],1%
same,Scores of damage caused by D. balteata,[2]; [29],2.1
same,Percent D. balteata survival,[2]; [30],1%
same,Scores of damage caused by D. balteata,[2]; [30],1.0
same,Percent D. balteata survival,[2]; [31],4%
same,Scores of damage caused by D. balteata,[2]; [31],2.1
same,Percent D. balteata survival,[2]; [32],7%
same,Scores of damage caused by D. balteata,[2]; [32],1.9
same,Percent D. balteata survival,[2]; [33],4%
same,Scores of damage caused by D. balteata,[2]; [33],1.8
same,Percent D. balteata survival,[2]; [34],10%
same,Scores of damage caused by D. balteata,[2]; [34],2.2
